Source: patent publication EP4721736A1, “PHARMACEUTICAL COMPOSITION FOR EFFECTIVELY DELAYING AND TREATING MYOPIA” (priority 2023, dated 2024)

Legend:
form-deprivation myopia [1] = test: Form-deprivation myopia model (FDM) in guinea pigs: interocular differences in refraction and eye axis parameters; details: for Difference in Refraction (Refraction, D) Mean / Difference in Axial Length (AL, mm) Mean / Difference in Vitreous Chamber Depth (VCD, mm) Mean: FD + 0.94% lipoic acid, experimental eye vs contralateral eye; for Difference in Refraction (Refraction, D) Mean: periocular subconjunctival injection 100 µL once daily; for Difference in Axial Length (AL, mm) Mean / Difference in Vitreous Chamber Depth (VCD, mm) Mean: subconjunctival injection once daily; for myopia inhibition rate: 0.94% lipoic acid compared to the vehicle control group
From the text: Form-deprivation and lens-induced myopia models in guinea pigs are classic and recognized myopic animal models in the art, and may be used for evaluating efficacy and safety of myopia treatment drugs, and methods for establishing such models are well-known to those skilled in the art. For animal modeling and administration routes in the present application, reference is made to previously published scientific documents by the research group (Sen Zhang, Invest Ophthalmol Vis Sci. 2019 Jul 1; 60(8):3074-3083.; Miaozhen Pan, Exp Eye Res. 2021 Jan; 202:108332.).
After individuals with significant eye diseases or abnormalities were eliminated from three-week-old tricolor guinea pigs, by detecting refraction (using an infrared eccentric photorefraction device) and the eye axis (using A-scan ultrasonography), animals with refractive power between 3 and 8 diopters (D), an interocular difference in refraction not exceeding 2 D, and interocular differences in vitreous chamber depth and axial length not exceeding 0.05 mm were selected. These animals were randomly divided into two groups: an FD + vehicle control group (1% DMSO + 49% PEG300 + 50% normal saline, by volume) and an FD + 0.94% lipoic acid drug treatment group. At 8:00 AM on day 1 of the experiment, form deprivation was induced in the guinea pigs using a mask method, where the right eye (experimental eye) was occluded and the left eye was left unoccluded (contralateral eye). The FD induction was maintained throughout the entire period of the lipoic acid efficacy experiment, with the hoods only briefly removed for drug administration or ocular examination (for example, refraction detection). Starting on the first day of the efficacy experiment, position of the hood was checked daily at 8:00 AM, 12:00 PM, and 7:00 PM, as well as prior to administration. Individuals with hoods fell off more than three times during the administration period were excluded. Beginning on the day of modeling, the corresponding vehicle or drug (lipoic acid formulation) was administrated to the experimental eye daily between 9:00 AM and 10:00 AM via periocular subconjunctival injection at an injection volume of 100 µL. The vehicle or drug was administrated once daily for two consecutive weeks. Interocular refraction and eye axis parameters of all subjects were measured at the start of the efficacy experiment, 1 week after administration, and after the final administration. All data collection and processing methods were the same as those previously published by the laboratory of the inventors (Pan M, Zhao F, Xie B, et al. Dietary omega-3 polyunsaturated fatty acids are protective for myopia. Proc Natl Acad Sci U S A 2021 Oct 26; 118(43):e2104689118). Statistical basis was the difference between the experimental eye and the contralateral eye in the same subject.
Utilizing the same efficacy evaluation system for myopia treatment in the guinea pig form-deprivation model as described in Example 2, the prevention and control effects of mexidol, pyridoxol, astaxanthin, and blueberry fruit extract on myopia were compared against lipoic acid. The administration route was periocular subconjunctival injection.
The same efficacy evaluation system for myopia treatment in the guinea pig form-deprivation model as described in Example 2 was utilized to evaluate the myopia treatment effects of blueberry fruit extract + lipoic acid compound formulations at different prescription ratios. The administration route was periocular subconjunctival injection.

form-deprivation myopia [2] = test: Choroidal thickness (OCT) in the guinea pig form-deprivation model; format: in vivo, guinea pigs; details: animals of Example 2 (0.94% lipoic acid), 30 to 60 minutes after the final administration
Description: Choroidal thickness of all animal subjects in Example 2 were detected using Spectralis HRA + OCT (Heidelberg Engineering, Heidelberg, Germany) for 30 minutes to 60 minutes after the final administration (of either the vehicle or lipoic acid).
After completion of the experiment, the choroidal thickness was detected in animals in the two control groups and the 0.5% lipoic acid choline ester eye drop administration group in Example 6 (some animals died during the measurement due to reasons unrelated to the test drugs, so the corresponding samples were eliminated).

[3] = tested on: age-related macular degeneration; details: oral administration; Kim et al. 2020; cited from earlier work

Structure (SMILES): O=C(O)CCCCC1CCSS1 (stereo not drawn) [Lipoic acid, alpha-lipoic acid]
- Difference in Refraction (Refraction, D) Mean (form-deprivation myopia [1]; 1 Week): -2.2 D
- Difference in Axial Length (AL, mm) Mean (form-deprivation myopia [1]; 1 Week): 0.04364 mm
- Difference in Vitreous Chamber Depth (VCD, mm) Mean (form-deprivation myopia [1]; 1 Week): 0.0009091 mm
- Difference in Axial Length (AL, mm) Mean (form-deprivation myopia [1]; 1 Week, listed as lipoic acid): 0.04364 + 0.03295 mm
- Difference in Vitreous Chamber Depth (VCD, mm) Mean (form-deprivation myopia [1]; 1 Week, listed as lipoic acid): 0.0009091 + 0.027 mm
- Difference in Refraction (Refraction, D) Mean (form-deprivation myopia [1]; 2 Weeks): -4.673 D
- Difference in Axial Length (AL, mm) Mean (form-deprivation myopia [1]; 2 Weeks): 0.06364 mm
- Difference in Vitreous Chamber Depth (VCD, mm) Mean (form-deprivation myopia [1]; 2 Weeks): 0.08545 mm
- Difference in Axial Length (AL, mm) Mean (form-deprivation myopia [1]; 2 Weeks, listed as lipoic acid): 0.06364 ± 0.03722 mm
- Difference in Vitreous Chamber Depth (VCD, mm) Mean (form-deprivation myopia [1]; 2 Weeks, listed as lipoic acid): 0.08545 + 0.02067 mm
- Difference in Refraction (Refraction, D) Mean (form-deprivation myopia [1]; Baseline): -0.04545 D
- Difference in Axial Length (AL, mm) Mean (form-deprivation myopia [1]; Baseline): -0.004545 mm
- Difference in Vitreous Chamber Depth (VCD, mm) Mean (form-deprivation myopia [1]; Baseline): 0.09273 mm
- axial elongation and increase in vitreous chamber depth, FIG. 5 (form-deprivation myopia [1]; Example 4, 0.3% R-alpha lipoic acid, subconjunctival injection, 1 and 2 weeks): could effectively inhibit the axial elongation and the increase in vitreous chamber depth
- refraction (interocular difference), FIG. 4 (form-deprivation myopia [1]; Example 4, week 1 detection, 0.3% R-alpha lipoic acid (R-LA), periocular subconjunctival injection, compared with the other test drugs): optimal myopia treatment effect
- anterior chamber depth, lens thickness, corneal curvature (form-deprivation myopia [1]; guinea pig, in vivo): unaffected by the drug
- mydriatic effect (pupil diameter) (form-deprivation myopia [1]; guinea pig, in vivo): No mydriatic effect was observed
- toxic reactions, ocular irritations, significant ocular abnormalities (form-deprivation myopia [1]; guinea pig, in vivo): no any toxic reactions, ocular irritations, or significant ocular abnormalities were observed
- myopia inhibition rate (form-deprivation myopia [1]; week 1 of treatment): 42.4%
- myopia inhibition rate (form-deprivation myopia [1]; week 2 of treatment): 21.1%
- choroidal thickness, experimental eye vs contralateral eye (form-deprivation myopia [2]): could significantly inhibit the decrease in choroidal thickness in myopic eyes
- efficacy, clinical endpoint [3]: did not reach a clinical endpoint
